Where only a bound is given, the exact number is not on record here.

The conditions of the data set: pampa; 60.0 min; 50.0 µM.
As for `CCc1ccc(C2C(C(=O)Nc3ccccc3OC)=C(C)Nc3c(C(=O)Nc4ccc(C)cc4)cnn32)cc1` (centres undefined), the apparent permeability (Papp) came to 26 ×10⁻⁶ cm/s. On to `NC1CCN(C(=O)C2CCCN(c3nc(-c4ccccc4)nc4c3CCC4)C2)CC1` (centres undefined), for which the Papp turned out to be 179 ×10⁻⁶ cm/s.

Take `O=C1NCN(c2ccccc2)C12CCN(CCCC(c1ccc(F)cc1)c1ccc(F)cc1)CC2`: the Papp is 42 ×10⁻⁶ cm/s.

`CC(C)(C)c1ccc2c(c1)CC[C@H]2NC(=O)Nc1cccc2[nH]ncc12` had a Papp of less than 1 ×10⁻⁶ cm/s. Regarding `CNC(=O)c1cc(Oc2ccc(NC(=O)Nc3cc(C(C)(C)C)nn3-c3ccc4ncccc4c3)c(F)c2)ccn1`, the Papp was 210 ×10⁻⁶ cm/s. Take `CCC[C@@H](NC(=O)N1C(=O)C(CC)(CC)[C@@H]1Oc1ccc(C(=O)N2CCN(C)CC2)cc1)c1ccc2c(c1)OCO2`: the Papp was greater than 300 ×10⁻⁶ cm/s. For `O=C(O)C1CN(Cc2ccc(-c3nc4cc(Cc5ccccc5F)ccc4s3)c(F)c2)C1` the value was greater than 300 ×10⁻⁶ cm/s; for `CCC(=O)N1CCN(c2ccc(-n3c(=O)ccc4cnc5ccc(-c6cnc7ccccc7c6)cc5c43)cc2C(F)(F)F)CC1`, 158 ×10⁻⁶ cm/s; for `CC(=O)c1cc2c(s1)c1cnn(Cc3ccccc3F)c(=O)c1n2C`, greater than 300 ×10⁻⁶ cm/s. Consider `CN(C)c1cc2c(cc1Sc1nc3c(N)nccc3n1CCNCC(C)(C)C)OCO2`, for which the Papp was determined as 20 ×10⁻⁶ cm/s.

As to `NC(=O)c1cccc(-c2cc(Nc3ccc(OC(F)(F)F)cc3)ncn2)c1`, the Papp is 94.4 ×10⁻⁶ cm/s. `COc1ccc(-c2c(Cl)ncn2-c2ccc(S(N)(=O)=O)cc2)cc1F` gave a Papp of 78 ×10⁻⁶ cm/s. `N[C@@H](Cc1ccc(N(CCCl)CCCl)cc1)C(=O)O` had a Papp of 131 ×10⁻⁶ cm/s. For `CC(=O)Nc1ccc(C(=O)NC(C)(C)C)cc1` the value was 2 ×10⁻⁶ cm/s; for `Oc1ccc2nc(CN3CCC(Cc4ccccc4F)CC3)[nH]c2c1`, 107 ×10⁻⁶ cm/s. `CC(=O)NC[C@H]1CN(c2ccc(N3CCOCC3)c(F)c2)C(=O)O1` displayed a Papp of 5 ×10⁻⁶ cm/s. For `Cc1ccc(CN2C(=O)C(=O)c3cc(Br)cc(C)c32)cc1` the value was 98.5 ×10⁻⁶ cm/s. `Cc1cc(=O)c(C(=O)N[C@@H](C(=O)N[C@@H]2C(=O)N3C(C(=O)O)=C(CSc4nnnn4C)CS[C@H]23)c2ccc(O)cc2)c[nH]1` came in with an apparent permeability coefficient (Papp) of less than 1 ×10⁻⁶ cm/s. Regarding `CN1CCN(C(=O)Cc2c[nH]c3ncc(-c4ccccc4Oc4ccccc4)cc23)CC1`, the Papp worked out at 299 ×10⁻⁶ cm/s. `CCOc1ccc(CCNC(=O)c2cc3ccccc3n2Cc2cccc(C)n2)cc1OCC` displayed a Papp of 271 ×10⁻⁶ cm/s. On to `Cc1onc(-c2c(F)cccc2Cl)c1C(=O)N[C@@H]1C(=O)N2[C@@H]1SC(C)(C)[C@@H]2C(=O)O`, for which the Papp was determined as 28 ×10⁻⁶ cm/s. For `N=c1c2c(-c3ccccc3)c(-c3ccccc3)n(CCc3ccccc3)c2ncn1[C@H](CO)Cc1ccccc1` the value was less than 1 ×10⁻⁶ cm/s; for `O=C(Nc1ccccc1)N1CCC(Cc2cnc3ccccc3c2)CC1`, greater than 300 ×10⁻⁶ cm/s.

In turn, `CNCCC=C1c2ccccc2CCc2ccccc21` came in with an apparent permeability coefficient (Papp) of 253 ×10⁻⁶ cm/s. As for `NC(=O)OC[C@@H]1[C@H](NC(=O)/C(=N\OCC(=O)O)c2csc(N)n2)C(=O)N1S(=O)(=O)O`, the apparent permeability coefficient (Papp) was less than 1 ×10⁻⁶ cm/s. For the compound `OCCOCCN1CCN(C(c2ccccc2)c2ccc(Cl)cc2)CC1` (centres undefined), the Papp stood at 114 ×10⁻⁶ cm/s. Take `CS/C=C/C(=O)O[C@@H]1CCC2=CC(=O)C(=C(C)C)C[C@]2(C)[C@H]1C`: the Papp came out at 77 ×10⁻⁶ cm/s. For `CC(C)C[C@H]1C(=O)O[C@H](Cc2ccc(N3CCOCC3)cc2)C(=O)N(C)[C@@H](CC(C)C)C(=O)O[C@H](C)C(=O)N(C)[C@@H](CC(C)C)C(=O)O[C@H](Cc2ccc(N3CCOCC3)cc2)C(=O)N(C)[C@@H](CC(C)C)C(=O)O[C@H](C)C(=O)N1C` the value was less than 1 ×10⁻⁶ cm/s; for `CN(C)CCN(C)C(=O)c1ccc(-c2ncc3cnc(-c4cccc(F)c4)cn23)cc1`, 90 ×10⁻⁶ cm/s.

Consider `CC[n+]1c(-c2ccccc2)c2cc(N)ccc2c2ccc(N)cc21`, for which the apparent permeability (Papp) was determined as 2 ×10⁻⁶ cm/s.

Compound `NC(=O)N1CCC(CC(=O)N2CCC([C@H]3c4ncc(Br)cc4CCc4cc(Cl)cc(Br)c43)CC2)CC1` displayed a Papp of 73.5 ×10⁻⁶ cm/s. `COc1ccc(-c2noc(CC(=O)O)c2-c2ccc(OC)cc2)cc1` showed a Papp of less than 1 ×10⁻⁶ cm/s. With `N=c1c2c(-c3ccccc3)cn(Cc3ccccc3)c2ncn1C1CCC(O)CC1` (centres undefined), the Papp came to 217 ×10⁻⁶ cm/s. For `COc1cc(Cc2cnc(N)nc2N)c(C(C)C)cc1OC` the value was 48 ×10⁻⁶ cm/s; for `CCOC(CCCn1cnc2c(c(-c3ccccc3)c(-c3ccccc3)n2Cc2ccccc2)c1=N)OCC`, 228 ×10⁻⁶ cm/s. For `Nc1ncnc2c1ncn2[C@H]1O[C@@H](CSCC[C@@H](N)C(=O)O)[C@H](O)[C@@H]1O` the value was less than 1 ×10⁻⁶ cm/s. For `CC(C)C[C@H](CO)Nc1nc(S[C@@H](C)c2ccccc2)nc2nc(N)sc12` the value was 244 ×10⁻⁶ cm/s. Consider `N=c1c2c(-c3ccccc3)cn(Cc3ccc(Br)cc3)c2ncn1CCCCO`, for which the apparent permeability coefficient (Papp) came out at 208 ×10⁻⁶ cm/s.

`CSc1nc(N)cc(Oc2ccc(-c3nc(Nc4cccc(C(F)(F)F)c4)n[nH]3)cc2)n1` showed an apparent permeability (Papp) of 53.8 ×10⁻⁶ cm/s. `CC1(C)S[C@@H]2[C@@H](N3C(=O)[C@@H](c4ccccc4)NC3(C)C)C(=O)N2[C@H]1C(=O)O` yielded a Papp greater than 300 ×10⁻⁶ cm/s. Compound `COc1c(C)cnc(Cn2cnc3c(Cl)nc(N)nc32)c1C` registered an apparent permeability (Papp) of 3.17 ×10⁻⁶ cm/s.

In turn, `Cc1[nH]c2ccccc2c1C1(O)C(=O)N(Cc2ccccc2)c2ccc(Cl)cc21` (centres undefined) gave an apparent permeability coefficient (Papp) greater than 300 ×10⁻⁶ cm/s. As to `CC(=O)Nc1ccc(OC(=O)c2ccccc2OC(C)=O)cc1`, the apparent permeability coefficient (Papp) amounted to 27 ×10⁻⁶ cm/s. Take `CCNC(=O)c1cc2c(-c3cc(OCCN4CCCC4)c(Cl)cc3Cl)nc(N)nc2s1`: the apparent permeability (Papp) stood at 123 ×10⁻⁶ cm/s.

`Cn1nnnc1Sc1ncnc2scc(-c3cccs3)c12`: the apparent permeability (Papp) stood at 244 ×10⁻⁶ cm/s.

`O=C(N/N=C/c1ccc(O)c(O)c1)c1cc2ccccc2cc1O` came in with a Papp of 5 ×10⁻⁶ cm/s.

Compound `CO/S(=N\S(=O)(=O)c1ccc(Cl)cc1)c1ccc([N+](=O)[O-])cc1` (centres undefined) came in with an apparent permeability (Papp) of 4 ×10⁻⁶ cm/s. In turn, `CNS(=O)(=O)Cc1ccc2[nH]cc(CCN(C)C)c2c1` showed a Papp of less than 1 ×10⁻⁶ cm/s. On to `CC(C)C(=O)OCc1cccc(OC(=O)[C@@H]2N3C(=O)[C@@H](NC(=O)Cc4ccccc4)[C@H]3SC2(C)C)c1`, for which the apparent permeability coefficient (Papp) was determined as 84 ×10⁻⁶ cm/s. Turning to `N=c1c2c(-c3ccccc3)c(-c3ccccc3)n(CCc3ccccc3)c2ncn1CC1CCCO1` (centres undefined), the Papp amounted to 269 ×10⁻⁶ cm/s. Compound `CCCCN(CCCC)C(=O)CN1C[C@H](c2ccc3c(c2)OCO3)[C@@H](C(=O)O)[C@@H]1c1ccc(OC)cc1` registered a Papp of 9 ×10⁻⁶ cm/s. In turn, `Nc1ncnc2c1ncn2CCNCCCCCO` showed a Papp of less than 1 ×10⁻⁶ cm/s. For `Cc1nn(C)c(C)c1-c1cccc2c1CCC(N(C)C)C2` (centres undefined) the value was 13.4 ×10⁻⁶ cm/s. The compound `C=CCN1CC[C@]23c4c5ccc(O)c4O[C@H]2[C@@H](OCCOCCOCCOCCOCCOCCOCCOC)CC[C@@]3(O)[C@H]1C5` showed an apparent permeability (Papp) of less than 1 ×10⁻⁶ cm/s. The compound `Nc1c(C(=O)Nc2ccc(Cl)c(C(F)(F)F)c2)sc2nc3c(cc12)N1CCC3CC1` yielded a Papp of 213 ×10⁻⁶ cm/s. For `CON(C)Cc1ccc(O)c2c1C[C@H]1C[C@H]3[C@H](N(C)C)C(=O)C(C(N)=O)=C(O)[C@@]3(O)C(=O)C1=C2O` the value was 2 ×10⁻⁶ cm/s. For `Cn1nnnc1Sc1ncnc2scc(-c3cccc(F)c3)c12`, the apparent permeability coefficient (Papp) is greater than 300 ×10⁻⁶ cm/s. Take `CC(=O)OC[C@@H]1O[C@@H](n2ccc(=O)[nH]c2=O)[C@H](OC(C)=O)[C@H]1OC(C)=O`: the apparent permeability (Papp) was less than 1 ×10⁻⁶ cm/s.

In turn, `C=Cc1c(C)c2cc3nc(c(CC(=O)N[C@@H](CC(=O)O)C(=O)O)c4nc(cc5[nH]c(cc1[nH]2)c(C)c5CC)C(C)=C4C(=O)O)[C@@H](CCC(=O)O)[C@@H]3C` yielded a Papp of less than 1 ×10⁻⁶ cm/s. For `O=C(NC1CCC(O)CC1)c1ccc(-c2ncc3cnc(-c4cccc(F)c4)cn23)cc1` (centres undefined) the value was 59 ×10⁻⁶ cm/s. In the case of `CCNC1(C(N)=O)CN(c2nc(C)nc3c(-c4ccc(Cl)cc4)c(-c4ccccc4Cl)nn23)C1`, the Papp is 8.69 ×10⁻⁶ cm/s. For `N=c1c2c(-c3ccccc3)c(-c3ccccc3)n(Cc3ccccc3)c2ncn1CCCCO` the value was 259 ×10⁻⁶ cm/s; for `COCCn1cnc2c(c(-c3ccccc3)c(-c3ccccc3)n2CCc2ccccc2)c1=N`, 116 ×10⁻⁶ cm/s.

For the compound `C[C@H]([C@@H](O)c1ccccc1)n1cnc2c(c(-c3ccccc3)c(-c3ccccc3)n2Cc2ccccc2)c1=N`, the apparent permeability coefficient (Papp) stood at 3 ×10⁻⁶ cm/s. For `COC(=O)C[C@@H](C(=O)OC)n1cnc2c(c(-c3ccccc3)cn2Cc2ccc(Br)cc2)c1=N` the value was less than 1 ×10⁻⁶ cm/s. Consider `O=C(Cc1cccs1)NC1C(=O)N2C(C(=O)[O-])=C(C[n+]3ccccc3)CSC12` (centres undefined), for which the apparent permeability coefficient (Papp) was less than 1 ×10⁻⁶ cm/s. In the case of `CCOC(CCCn1cnc2c(c(-c3ccccc3)c(-c3ccccc3)n2CCc2ccccc2)c1=N)OCC`, the Papp was less than 1 ×10⁻⁶ cm/s. For `Cc1nc(C2CCCCC2)c(-c2ccc(S(N)(=O)=O)c(F)c2)o1` the value was 172 ×10⁻⁶ cm/s; for `N#Cc1cccc(NC(=O)c2sc3nc4c(cc3c2N)N2CCC4CC2)c1`, 142 ×10⁻⁶ cm/s; for `COC(=O)c1cccc(Cn2cnc3c(c(-c4ccccc4)c(-c4ccccc4)n3CCc3ccccc3)c2=N)c1`, 27 ×10⁻⁶ cm/s. With `CCOC(=N)c1nc2ccc3ncnc(Nc4cc(F)c(F)cc4Cl)c3c2s1`, the apparent permeability coefficient (Papp) came to 1.2 ×10⁻⁶ cm/s. On to `COCC1=C(C(=O)O)N2C(=O)[C@@H](NC(=O)/C(=N\OC)c3csc(N)n3)[C@H]2SC1`, for which the apparent permeability (Papp) is less than 1 ×10⁻⁶ cm/s. With `COc1cccc2c1C(=O)c1c(O)c3c(c(O)c1C2=O)C[C@@](O)(C(C)=O)C[C@@H]3O[C@H]1C[C@H](N)[C@H](O)[C@H](C)O1`, the apparent permeability coefficient (Papp) is 8 ×10⁻⁶ cm/s. In turn, `O=C(NCCO)c1cc(C(=O)NCCO)cc(C(=O)NCCO)c1` returned a Papp of less than 1 ×10⁻⁶ cm/s. For `CO[C@@]1(NC(=O)C(C(=O)O)c2ccc(O)cc2)C(=O)N2C(C(=O)O)=C(CSc3nnnn3C)CO[C@@H]21` (some centres undefined) the value was less than 1 ×10⁻⁶ cm/s; for `O=C1CCCC2=C1C(c1[nH]ncc1Cl)N=C(Nc1nc3ccccc3o1)N2` (centres undefined), 275 ×10⁻⁶ cm/s. Consider `Cn1nnnc1Sc1ncnc2scc(-c3cccc(Cl)c3)c12`, for which the Papp stood at 134 ×10⁻⁶ cm/s. `Cc1cccc(-c2csc3ncnc(Sc4nnnn4C)c23)c1` displayed a Papp of 225 ×10⁻⁶ cm/s. Turning to `Cc1cccc(C#Cc2cc(F)cc(C#N)c2)n1`, the Papp was 209 ×10⁻⁶ cm/s.

On to `O=C(NN1CCCCC1)c1nn(-c2ccc(Cl)cc2Cl)c(-c2ccc(C#Cc3ccc(C(F)(F)F)cc3)s2)c1CNS(=O)(=O)N1CCCC1`, for which the apparent permeability (Papp) was determined as 4 ×10⁻⁶ cm/s.

In turn, `O=C(O)[C@H]1O[C@@H](Oc2cc3oc(-c4ccc(O)cc4)cc(=O)c3c(O)c2O)[C@H](O)[C@@H](O)[C@@H]1O` yielded a Papp of less than 1 ×10⁻⁶ cm/s. The compound `CNC1CCC(N(Cc2ccc(OC)c(-c3ccc(C#N)cc3)c2)C(=O)c2sc3ccccc3c2Cl)CC1` (centres undefined) gave an apparent permeability (Papp) of 234 ×10⁻⁶ cm/s.

In turn, `O=C1NC(Nc2ccccc2)=N/C1=C\c1ccc2c(c1)OCO2` came in with an apparent permeability coefficient (Papp) of less than 1 ×10⁻⁶ cm/s. Compound `N=c1c2c(-c3ccccc3)c(-c3ccccc3)n(Cc3ccccc3)c2ncn1CCO` had a Papp of 223 ×10⁻⁶ cm/s.
